Columns and labels:
Type in all cases: in vivo
[1] = Side-effects of PTIO in EAE
Protocol: The biological half-life of carboxy-PTIO are estimated to be less than five minutes in the blood when injected i.v. or i.p. into either rats or mice. Approximately 75% of the PTIO administered to mice can be accounted for in excretions within 4 hours. Nevertheless, the clinical symptoms of animals subjected to the stimuli that induce EAE and treated with PTIO are clearly alleviated for at least 24 hours between doses. […] It is possible that the removal of a significant quantity of NO may reduce the amount of tissue damage to a level that the animal can cope with. However, we believe that it is possible that the transient reduction of NO accumulation in an inflammatory response may have more wide ranging effects for instance through the disturbance of regulatory circuits effecting the production of NO or one of the other related substances involved in immunopathology. […] Through its effects on the circulation, NO may play a role in facilitating access of MBP specific T cells to the brain which could be inhibited by PTIO. It is also conceivable that a PTIO derivative formed by its interaction with NO also has some protective effect. […]

[2] = system: experimental allergic encephalomyelitis (EAE), PLP immunization; assay: Survival of SWXJ-14 mice with EAE
Protocol: FIG. 14. Comparison of the survival of SWXJ-14 mice with EAE treated with PTIO and uric acid. SWXJ-mice were immunized with PLP in CFA as described for FIG. 12 and treated once daily with a 2 mg dose of uric acid or PTIO i.p. from day 5 to day 13, followed by two daily doses on day 14 and three daily doses thereafterward.
To more directly compare the action of PTIO and uric acid in EAE we have administered each of these agents in parallel to PLP-immunized SWXJ-14 mice. In these experiments the mice were immunized with PLP and treated with increasing doses of PTIO or uric acid beginning at day 5 after immunization.

nitric oxide (NO) = assay: NO levels in spinal cord and brain of SJL mice with EAE
Protocol: SJL mice are immunized subcutaneously with pMBP in adjuvant to induce EAE, from which they often recover. Commencing ten days post-immunization, groups of mice (n=6) were treated once daily with 2 mg of either PTIO or carboxy-PTIO intraperitoneally and observed for clinical signs of EAE which were graded as detailed in Table 1. […] At 18 days […], NO determinations were performed in several mice from each group.

## CC1(C)N([O])C(c2ccccc2)=[N+]([O-])C1(C)C [PTIO, 2-phenyl-4,4,5,5-tetramethylimidazoline-1-oxyl-3-oxide]
[1]
  Side-effects: without notable side-effects
[2]; at termination of the experiment
  Improvement in clinical signs of surviving mice (FIG. 14): a number were actually beginning to show some improvement in the clinical signs of their disease
[2]; several days after day 18, 2 mg i.p. once daily day 5-13, two doses day 14, then three daily
  Mice still alive (FIG. 14): 40%
Nitric oxide (NO); 2 mg once daily i.p., day 18
  NO levels in spinal cord (FIG. 8): lower in the spinal cords
Nitric oxide (NO); SJL mice, i.p. administration
  Levels of NO in spinal cord: reduce levels of NO detected in spinal cord
Nitric oxide (NO); SJL mouse - immunization EAE, Table 2
  NO-spinal cord: 1.6 mM
